Source: patent US20250052985A1, “SYSTEM AND METHOD FOR QUANTITATIVE PHASE IMAGING FOR MULTI-PARAMETRIC SCREENING OF TUMOR THERAPY RESPONSE” (UNIVERSITY OF UTAH RESEARCH FOUNDATION, priority 2023, published 2025)
Values joined by “and” are separate entries in the source; they are usually repeats but may differ in a detail not shown here. Equal entries are not always repeated. Where two headings read alike, the source gives them in different places.

Experiments:
BT-474 cells [1] = assay: cells; settings: for Max Asymptote / Min Asymptote: BT-474, 4-parameter Hill fit of mean SGR vs concentration, one line per replicate; for Hill Slope / log10(EC50): BT-474, Hill fit; for DoR QPI / ToR 20 μM: BT-474 cell line; for DoR QPI: depth of response; for ToR 20 μM: time of response at 20 μM; for EC50: Homo sapiens
How it was run: (§1)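 EC50 comes from 4-parameter Hill fits of average specific growth rate (mass accumulation) versus dose; a response is called only when the fit beats a flat line by F-test at p<0.01. Growth was tracked by differential phase contrast QPI for 24 or 72 h post-equilibration, followed by CTG ATP readout.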

MCF-7 cells [2] = assay: cells; settings: for Max Asymptote / Min Asymptote: MCF-7, 4-parameter Hill fit of mean SGR vs concentration, one line per replicate; for Hill Slope: MCF-7, Hill fit; for DoR QPI / ToR 20 μM: MCF-7 cell line; for DoR QPI: depth of response; for ToR 20 μM: time of response at 20 μM; for EC50: Homo sapiens
How it was run: as §1

BT-474 cells [3] = assay: CellTiter-Glo (CTG) ATP viability assay, BT-474; assay type: cell-based; settings: for Min Asymptote: BT-474, Hill fit of luminescence normalized to solvent control, one line per replicate; for DoR CTG: BT-474 cell line, depth of response; for EC50: Homo sapiens
How it was run: (§2)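 Cell viability was read as ATP content by CellTiter-Glo luminescence after replacing media with reagent, shaking 20 min and resting 10 min. Signal was normalized to solvent control, and a 4-parameter Hill fit to the dose response gave EC50 and depth of response.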

MCF-7 cells [4] = assay: CellTiter-Glo (CTG) ATP viability assay, MCF-7; assay type: cell-based; settings: for Min Asymptote: MCF-7, Hill fit of luminescence normalized to solvent control, one line per replicate; for EC50: Homo sapiens; for DoR CTG: MCF-7 cell line, depth of response
How it was run: as §2

MDA-MB-231 cells = assay: CellTiter-Glo (CTG) ATP viability assay, MDA-MB-231; assay type: cell-based; settings: for Min Asymptote: MDA-MB-231, Hill fit of luminescence normalized to solvent control, one line per replicate; for EC50: Homo sapiens; for DoR CTG: MDA-MB-231 cell line, depth of response
Description: CTG (e.g., read by the CTG reader 115) is a cell viability assay that quantifies the amount of ATP present at the end of an experiment as an indicator of the number of live cells. The electronic controller 155 measures ATP content in each condition as a readout by a luminescent signal, which is normalized by the luminescence of the control (e.g., a control well) to determine cell viability relative to on-plate controls. In some embodiments, the CTG assay is performed by first removing 100 μL of media from each well on the well-plate 105, which is then replaced with an equal amount of CellTiter-Glo reagent (e.g., Promega, G7572). Assayed plates may be shaken at 500 RPM for 20 minutes and allowed to rest for 10 minutes. In some instances, 100 μL of volume from each well is transferred to a white 96-well plate (e.g., Perkin Elmer, 6005680). The electronic controller 155 collects luminescence data from each well using an Envision plate reader (e.g., Perkin Elmer) and normalized against the solvent control to measure ATP content. The electronic controller 155 fits a 4-parameter hill curve to the dose response to determine the EC50 and depth of response.

[5] = BT-474, 24 h, read-out: log10(EC50), 24 h QPI, BT-474, Hill fit (converted), EC50 in μM per Table 1
[6] = BT-474, read-out: EC50, QPI, BT-474 cell line, QPI growth rate
[7] = BT-474, 24 h, 24 h CTG, BT-474, Hill fit, read-out: log10(EC50) (converted)
[8] = MCF7, 72 h, 72 h CTG, MCF-7, Hill fit, read-out: log10(EC50) (converted)
[9] = MDA-MB-231, 24 h, 24 h CTG, MDA-MB-231, Hill fit, read-out: log10(EC50) (converted)

CC(=O)c1c(C)c2cnc(Nc3ccc(N4CCNCC4)cn3)nc2n(C2CCCC2)c1=O [Palbociclib]
Max Asymptote (BT-474 cells [1]; 24 h QPI): 0.01082 and 0.008556 and 0.008815
Min Asymptote (BT-474 cells [1]; 24 h QPI): −0.01762 and −0.0277 and −0.01394
Hill Slope (BT-474 cells [1]; 24 h QPI): 2.2846 and 1.7745 and 2.7163
log10(EC50) (BT-474 cells [1]; 24 h QPI, EC50 in μM per Table 1): −1.2331 and −1.2554
Max Asymptote (BT-474 cells [1]; 72 h QPI): −0.01228 and −0.0216 and −0.01047
Min Asymptote (BT-474 cells [1]; 72 h QPI): 0.008887 and 0.008838 and 0.006465
log10(EC50) (BT-474 cells [1]; 72 h QPI, EC50 in μM per Table 1): −1.2071 and −1.2126
DoR QPI (BT-474 cells [1]): 1.6
ToR 20 μM (BT-474 cells [1]): −3.0
EC50 (BT-474 cells [1]; [5]): 13.9 µM
EC50 (BT-474 cells [1]; BT-474, 72 h, read-out: log10(EC50), 72 h QPI, BT-474, Hill fit (converted), EC50 in μM per Table 1): 12.3 µM
EC50 (BT-474 cells [1]; [6]): 11.8 µM
Max Asymptote (MCF-7 cells [2]; 24 h QPI): 0.02169
Min Asymptote (MCF-7 cells [2]; 24 h QPI): 0.01657 and 0.02043
Hill Slope (MCF-7 cells [2]; 24 h QPI): 1.6152 and 1.0687
Max Asymptote (MCF-7 cells [2]; 72 h QPI): 0.009479 and 0.01292
Min Asymptote (MCF-7 cells [2]; 72 h QPI): 0.01776 and 0.02128
DoR QPI (MCF-7 cells [2]): 1.0
ToR 20 μM (MCF-7 cells [2]): 4.4
Hill Slope (BT-474 cells [3]; 24 h CTG, BT-474, Hill fit): 6.945
Min Asymptote (BT-474 cells [3]; 24 h CTG): 0.2202
Hill Slope (BT-474 cells [3]; 72 h CTG, BT-474, Hill fit): 5.467 and 7.802
Min Asymptote (BT-474 cells [3]; 72 h CTG): 0.01628 and 0.01895
DoR CTG (BT-474 cells [3]; CellTiter-Glo): 0.9
EC50 (BT-474 cells [3]; [7]): 14200 nM
Hill Slope (MCF-7 cells [4]; 72 h CTG, MCF-7, Hill fit): 0.7617 and 0.9004
log10(EC50) (MCF-7 cells [4]; 72 h CTG, MCF-7, Hill fit): −0.1876
Min Asymptote (MCF-7 cells [4]; 72 h CTG): 0.1244 (2×) and 0.221
EC50 (MCF-7 cells [4]; [8]): 1620 nM
DoR CTG (MCF-7 cells [4]; CellTiter-Glo): 1.0
Hill Slope (MDA-MB-231 cells; 24 h CTG, MDA-MB-231, Hill fit): 6.945
Min Asymptote (MDA-MB-231 cells; 24 h CTG): 0.2202
Min Asymptote (MDA-MB-231 cells; 72 h CTG): 0.01895 and 7.98E−09
EC50 (MDA-MB-231 cells; [9]): 14200 nM
DoR CTG (MDA-MB-231 cells; CellTiter-Glo): 0.7

CC[C@]1(O)C[C@@H]2CN(CCc3c([nH]c4ccccc34)[C@@](C(=O)OC)(c3cc4c(cc3OC)N(C)[C@H]3[C@@](O)(C(=O)OC)[C@H](OC(C)=O)[C@]5(CC)C=CCN6CC[C@]43[C@@H]65)C2)C1 [Vinblastine]
Max Asymptote (BT-474 cells [1]; 24 h QPI): 0.007582
Min Asymptote (BT-474 cells [1]; 24 h QPI): −0.004812
Hill Slope (BT-474 cells [1]; 24 h QPI): 0.4052
Max Asymptote (BT-474 cells [1]; 72 h QPI): −0.001678 and −0.002248
Min Asymptote (BT-474 cells [1]; 72 h QPI): 0.002895 and 0.003538
Hill Slope (BT-474 cells [1]; 72 h QPI): 2.4178 and 1.3815
growth rate and heterogeneity over time (BT-474 cells [1]; BT-474, 0.0016 μM): decrease in growth rate at constant heterogeneity that is greater than the control
growth rate and heterogeneity over time (BT-474 cells [1]; BT-474, 0.016 μM): decreased growth rate and increased heterogeneity
growth rate and heterogeneity over time (BT-474 cells [1]; BT-474, 0.4 μM): reduced growth rate at the same level of heterogeneity as the control
average growth rate over time (BT-474 cells [1]; BT-474, 20 μM): slowly decreases over 12-60 h of treatment
growth rate and heterogeneity over time (BT-474 cells [1]; BT-474, 20 μM): decreases, while the heterogeneity for both populations increases
change of population spread (SD) of SGR (BT-474 cells [1]; BT-474, 20 μM, with significant decrease in mean response): no significant change to the spread
response of growth rate and heterogeneity to treatment (BT-474 cells [1]; BT-474, FIG. 5E, 22, 23): both reduced growth rate and slightly increased heterogeneity
growth rate and heterogeneity as concentration increases (BT-474 cells [1]; BT-474, FIG. 22): decrease in growth rate as concentration increases while heterogeneity remains constant
DoR QPI (BT-474 cells [1]): 2.8
ToR 20 μM (BT-474 cells [1]): 4.9
EC50 (BT-474 cells [1]; [5]): 48.8 µM
EC50 (BT-474 cells [1]; [6]): 14.9 µM
Max Asymptote (MCF-7 cells [2]; 24 h QPI): 0.01958
Min Asymptote (MCF-7 cells [2]; 24 h QPI): 0.005796
Hill Slope (MCF-7 cells [2]; 24 h QPI): 3.2016
Min Asymptote (MCF-7 cells [2]; 72 h QPI): 0.01979 and 0.02842 and 0.02817
Hill Slope (MCF-7 cells [2]; 72 h QPI): 0.3759 and 0.3808 and 0.4308
EC50 (MCF-7 cells [2]; MCF7, 24 h, read-out: log10(EC50), 24 h QPI, MCF-7, Hill fit (converted), EC50 in μM per Table 1): 0.00154 µM
EC50 (MCF-7 cells [2]; MCF7, read-out: EC50, QPI, MCF-7 cell line, QPI growth rate): 0.3 µM
DoR QPI (MCF-7 cells [2]): 0.4
ToR 20 μM (MCF-7 cells [2]): −3.0
Hill Slope (BT-474 cells [3]; 24 h CTG, BT-474, Hill fit): 0.3445
Min Asymptote (BT-474 cells [3]; 24 h CTG): 0.5659
Hill Slope (BT-474 cells [3]; 72 h CTG, BT-474, Hill fit): 0.1
Min Asymptote (BT-474 cells [3]; 72 h CTG): 0.06356
DoR CTG (BT-474 cells [3]; CellTiter-Glo): 1.0
EC50 (BT-474 cells [3]; [7]): 1830 nM
EC50 (BT-474 cells [3]; BT-474, 72 h, 72 h CTG, BT-474, Hill fit, read-out: log10(EC50) (converted)): 7.66 nM
EC50 (BT-474 cells [3]; BT-474, BT-474 cell line, CellTiter-Glo, read-out: EC50, CTG): 6400 nM
Hill Slope (MCF-7 cells [4]; 72 h CTG, MCF-7, Hill fit): 0.2572 and 0.2217
log10(EC50) (MCF-7 cells [4]; 72 h CTG, MCF-7, Hill fit): 2.689
Min Asymptote (MCF-7 cells [4]; 72 h CTG): 4.32E−11 (2×) and 1.18E−11
EC50 (MCF-7 cells [4]; [8]): 2.15 nM
EC50 (MCF-7 cells [4]; MCF7, MCF-7 cell line, CellTiter-Glo, read-out: EC50, CTG (converted)): 1600 nM
DoR CTG (MCF-7 cells [4]; CellTiter-Glo): 0.8
Hill Slope (MDA-MB-231 cells; 24 h CTG, MDA-MB-231, Hill fit): 0.3445
Min Asymptote (MDA-MB-231 cells; 24 h CTG): 0.5659
Min Asymptote (MDA-MB-231 cells; 72 h CTG): 0.06356 and 0.2911
EC50 (MDA-MB-231 cells; [9]): 1830 nM
EC50 (MDA-MB-231 cells; MDA-MB-231, MDA-MB-231 cell line, CellTiter-Glo, read-out: EC50, CTG): 3000 nM
DoR CTG (MDA-MB-231 cells; CellTiter-Glo): 1.0
